Measurements: patent US20190335749A1, “Adjustable Release Pesticide Tablet Formulations” (priority 2018, published 2019)

Legend:
[1] = cited from earlier work
[2] = TFM release rate in flow chamber, 11 L of water per minute; assay type: physicochemical; conditions: flow of 11 L of water per minute; 20 g TFM; FIG. 8, FIG. 9
From the text: To scale up from the tablet press, a hand-driven compression clamp was assembled in a fashion to create a compressed 20 g TFM cylinder 1 inch in diameter or combination of tablets adding to 20 g total TFM. Variables investigated were matrix type (tea bag vs porous cotton mesh), tablet size, formulation, and compression strength of formulation. The resulting tablets were placed into a flow chamber with a flow of 11 L of water per minute and aliquots were taken at designated time periods to evaluate TFM release rates.
Tablets H, I and J were all prepared according to Tablet E except that increasing amounts of sand were added as a density modifier to ensure tablets remained submerged.

| Compound | solubility in water [1] | TFM release rate [2] |
| --- | --- | --- |
| O=C(O)COc1ccc(Cl)cc1Cl [neutral 2,4-D, 2,4-Dichlorophenoxyacetic Acid] | less water soluble |  |
| [Cu+2].[OH-].[OH-] [Copper hydroxide] | extremely low solubility |  |
| O=[N+]([O-])c1ccc([O-])cc1C(F)(F)F.[K+] [TFM phenoxide salt] |  | releases the fastest |
